In the oligonucleotide strings, read from the 5' end, every base follows the letter of its sugar. An asterisk marks phosphorothioate; unmarked linkages are phosphodiester. Other units and linkages are bracketed, terminal groups are in braces. A string of capitals states the bases alone. e = 2'-O-(2-methoxyethyl) (MOE); [5mC] = 5-methylcytosine; d = 2'-deoxy (DNA)
Key:
IGFBP-1 = IGFBP-1 mRNA expression in HepG2 cells; type: cell-based, human; settings: for IGFBP1 mRNA expression: Experiment 2, insulin treated: HepG2 cells transfected with oligomeric compound, 1 nM insulin for four hours, UTC + 1 nM insulin = 100
Method: (§1) Approximately 28 hours after transfection, the cells are subjected to serum starvation for a period of 12 to 16 hours, using serum-free growth medium. Following serum starvation, cells are treated with 1 nM insulin (insulin-treated) or are left untreated (basal conditions) for approximately four hours. At the same time, untreated control cells in both plates are treated with 100 nM insulin to determine the maximal insulin response. Following insulin treatment (forty-eight hours after transfection), total RNA is harvested from all samples, and the amount of total RNA from each sample is determined using a Ribogreen assay (Invitrogen Corporation, Carlsbad, Calif.). Real-time PCR is performed on the total RNA samples using primer/probe sets for three insulin responsive genes: insulin-like growth factor binding protein-1 (IGFBP-1), cytosolic PEPCK (PEPCK-C), and follistatin. Gene expression levels obtained by real-time PCR are normalized for total RNA content in the samples.
(§2) Oligomeric compounds of the present invention were tested for their effects on insulin signaling in HepG2 cells. HepG2 cells were plated at 7500 cells/well in collagen coated 96-well plates. The following day, cells were transfected with oligomeric compounds targeting miRNAs using 100 nM oligomeric compound in LIPOFECTIN™ (Invitrogen Corporation, Carlsbad, Calif.) in two 96-well plates. The oligomeric compounds were tested in triplicate on each 96-well plate, except for positive and negative controls, which were measured up to six times per plate. At the end of transfection, the transfection medium was replaced by regular growth medium. Twenty-eight hours post-transfection, the cells were subjected to overnight (sixteen to eighteen hours) serum starvation using serum free growth medium. Forty-four hours post-transfection, the cells in the transfected wells were treated with either no insulin (“basal” Experiment 1, for identification of insulin-mimetic compounds) or with 1 nM insulin (“insulin treated” Experiment 2, for identification of insulin sensitizers) for four hours. At the same time, in both plates, cells in some of the un-transfected control wells are treated with 100 nM insulin to determine maximal insulin response. At the end of the insulin or no-insulin treatment (forty-eight hours post-transfection), total RNA is isolated from both the basal and insulin treated (1 nM) 96-well plates, and the amount of total RNA from each sample is determined using a Ribogreen assay (Molecular Probes, Eugene, Oreg.). Real-time PCR is performed on all the total RNA samples using primer/probe sets for three insulin responsive genes: PEPCK-c, IGFBP-1 and follistatin. Expression levels for each gene are normalized to total RNA, and values+standard deviation are expressed relative to the transfectant only untreated control (UTC) and negative control compounds.
(§3) Protocols for treatment of HepG2 cells and transfection of oligomeric compounds are as described in Example 18. Also as described in Example 18, forty-four hours post-transfection, the cells in the transfected wells were treated with either no insulin (“basal” Experiment 3 (below), for identification of insulin-mimetic compounds) or with 1 nM insulin (“insulin treated” Experiment 4 (below), for identification of insulin sensitizers) for four hours. At the same time, in both plates, cells in some of the un-transfected control wells are treated with 100 nM insulin to determine maximal insulin response. At the end of the insulin or no-insulin treatment (forty-eight hours post-transfection), total RNA is isolated from both the basal and insulin treated (1 nM) 96-well plates, and the amount of total RNA from each sample is determined using a Ribogreen assay (Molecular Probes, Eugene, Oreg.).

PEPCK-c = PEPCK-c mRNA expression in HepG2 cells; type: cell-based, human; settings: for PEPCKc mRNA expression: Experiment 2, insulin treated: HepG2 cells transfected with oligomeric compound, 1 nM insulin for four hours, UTC + 1 nM insulin = 100; for decrease in PEPCK-c mRNA: HepG2, basal (no insulin); for decrease in PEPCK-c mRNA / reduction of PEPCK-c mRNA expression: 100 nM; for reduction of PEPCK-c mRNA expression: HepG2, 1 nM insulin
Method: as §1, §2, §3

follistatin = assay: Follistatin mRNA expression in HepG2 cells; type: cell-based, human; settings: for Follistatin mRNA expression: Experiment 2, insulin treated: HepG2 cells transfected with oligomeric compound, 1 nM insulin for four hours, UTC + 1 nM insulin = 100
Method: as §1, §2, §3

T47D cells = assay: Caspase-3 activity assay (apoptosis) in T47D cells; settings: T47D cells, 48 hours; for Fold Increase over UTC (caspase-3 activity, apoptosis): 200 nM oligomeric compound, experiment of Table 12
[1] = test system: BJ, B16-F10, T47D, T47Dp53 and HeLa cells; assay: Cell cycle assay (propidium iodide flow cytometry), cell line panel; type: cell-based; settings: for G1 (percentage of cells in phase of the cell cycle) / G2/M (percentage of cells in phase of the cell cycle) / S (percentage of cells in phase of the cell cycle) / SubG1 (percentage of cells in phase of the cell cycle) / aneuploid (percentage of cells): 150 nM oligomeric compound, 4.5 μg/ml LIPOFECTIN, after 72 hours, propidium iodide flow cytometry
HeLa cells = assay: Cell cycle assay in HeLa cells; type: cell-based, human; settings: HeLa cells, 150 nM oligomeric compound; for % cells aneuploid / % cells in cell cycle phase G1 / % cells in cell cycle phase G2/M / % cells in cell cycle phase S / % cells in cell cycle phase subG1: 24 hours, relative to untreated control (UTC = 100); for % cells in cell cycle phase: G1 / % cells in cell cycle phase: G2/M / % cells in cell cycle phase: S / % cells in cell cycle phase: aneuploid / % cells in cell cycle phase: subG1: 48 hours after treatment, relative to untreated control (UTC=100)
[2] = Experiment 3, basal (no insulin), HepG2 cells, 48 hours post-transfection
[3] = Experiment 4, insulin-sensitization: HepG2 cells treated with 1 nM insulin for four hours, 48 h post-transfection, mRNA by real-time PCR

Substance | G1 (percentage of cells in phase of the cell cycle) [1] | G2/M (percentage of cells in phase of the cell cycle) [1] | S (percentage of cells in phase of the cell cycle) [1] | SubG1 (percentage of cells in phase of the cell cycle) [1] | aneuploid (percentage of cells) [1] | % cells aneuploid (HeLa cells) | % cells in cell cycle phase G1 (HeLa cells) | % cells in cell cycle phase G2/M (HeLa cells) | % cells in cell cycle phase S (HeLa cells) | % cells in cell cycle phase subG1 (HeLa cells) | % cells in cell cycle phase: G1 (HeLa cells) | % cells in cell cycle phase: G2/M (HeLa cells) | % cells in cell cycle phase: S (HeLa cells) | % cells in cell cycle phase: aneuploid (HeLa cells) | % cells in cell cycle phase: subG1 (HeLa cells) | decrease in PEPCK-c mRNA (PEPCK-c) | other results
328702 (eT*eG*eA*e[5mC]*e[5mC]*dA*d[5mC]*dA*dA*dA*dA*dT*dT*d[5mC]*d[5mC]*eT*eT*eA*e[5mC]*eA; antisense) [compound 328702] |  |  |  |  |  |  |  |  |  |  |  |  |  |  |  |  | IGFBP1 mRNA expression (IGFBP-1): 83; PEPCKc mRNA expression (PEPCK-c): 96; Follistatin mRNA expression (follistatin): 88
328774 (antisense eG*e[5mC]*eA*e[5mC]*e[5mC]*d[5mC]*dG*d[5mC]*d[5mC]*dT*d[5mC]*dA*d[5mC]*dA*d[5mC]*eA*e[5mC]*eG*eT*eG) [compound 328774] |  |  |  |  |  |  |  |  |  |  |  |  |  |  |  |  | IGFBP1 mRNA expression (IGFBP-1): 100; PEPCKc mRNA expression (PEPCK-c): 77; Follistatin mRNA expression (follistatin): 68
341813 (antisense AGACACGTGCACTGTAGA; all 2'-MOE, all phosphorothioate, methylation of C not given here) [compound 341813] |  |  |  |  |  |  |  |  |  |  |  |  |  |  |  |  | IGFBP-1 (% UTC) (IGFBP-1; [2]): 137 % UTC; IGFBP-1 (% UTC) (IGFBP-1; [3]): 117 % UTC; PEPCK-c (% UTC) (PEPCK-c; [2]): 121 % UTC; PEPCK-c (% UTC) (PEPCK-c; [3]): 88 % UTC; Follistatin (% UTC) (follistatin; [2]): 100 % UTC; Follistatin (% UTC) (follistatin; [3]): 102 % UTC
328388 (eT*e[5mC]*e[5mC]*e[5mC]*eA*dT*dA*dG*d[5mC]*dA*dG*dG*dG*d[5mC]*dA*eG*eA*eG*e[5mC]*e[5mC]; antisense) [compound 328388] | 57.5% | 14.6% | 28% | 4.0% | 14.5% | 85% | 110% | 115% | 83% | 120% | 99% | 102% | 101% | 126% | 112% |  | Fold Increase over UTC (caspase-3 activity, apoptosis) (T47D cells): 0.9 fold
328419 (antisense eT*eG*eT*eT*eG*d[5mC]*d[5mC]*dT*dA*dA*d[5mC]*dG*dA*dA*d[5mC]*eA*e[5mC]*eA*eG*eA) [compound 328419] | 51.2% | 16.3% | 32.5% | 6.0% | 17.9% | 77% | 109% | 124% | 79% | 87% | 99% | 107% | 96% | 112% | 83% |  | Fold Increase over UTC (caspase-3 activity, apoptosis) (T47D cells): 0.7 fold
GCTACCTGCACTGTAAGCACTTTT (chemistry not given here) [ISIS 327911, uniform 2′-MOE PS; targets mir-106] |  |  |  |  |  |  |  |  |  |  |  |  |  |  |  | 48% | percentage of cells in the G2/M phase ([1]; 150 nM, 72 hours (Table 29)): increased percentage of cells in the G2/M phase
TCAGTTTTGCATGGATTTGCACA (anti-miR; chemistry not fully specified) [ISIS 327922, uniform 2′-MOE PS; targets mir-19b-2] |  |  |  |  |  |  |  |  |  |  |  |  |  |  |  | 23% | reduction of PEPCK-c mRNA expression (PEPCK-c): 24%
328644 (eG*eA*e[5mC]*eA*eA*dG*dG*dT*dG*dG*dG*dA*dG*d[5mC]*dG*eA*eG*eT*eG*eG; antisense) [compound 328644] | 58.4% | 14% | 27.6% | 7.2% | 17.5% | 68% | 113% | 109% | 84% | 71% | 101% | 98% | 101% | 82% | 52% |  | Fold Increase over UTC (caspase-3 activity, apoptosis) (T47D cells): 0.7 fold
AGAAGGTGGGGAGCAGCGTCA (anti-miR; chemistry not fully specified) [ISIS 328115, uniform 2′-MOE PS; targets hypothetical miRNA-142] |  |  |  |  |  |  |  |  |  |  |  |  |  |  |  |  | reduction of PEPCK-c mRNA expression (PEPCK-c): 41%
328424 (antisense eA*eG*eG*eA*eA*dG*d[5mC]*dA*d[5mC]*dA*d[5mC]*dA*dT*dT*dA*eT*e[5mC]*eA*e[5mC]*eA) [compound 328424] | 61.9% | 14.4% | 23.7% | 3.1% | 16.9% | 74% | 110% | 112% | 85% | 60% | 103% | 101% | 91% | 111% | 89% |  | Fold Increase over UTC (caspase activity) (T47D cells; 200 nM, relative to untreated control): 0.9
ISIS 341804: SEQ ID NO: 761, targeting mir-94/mir-106b (antisense ATCTGCACTGTCAGCACTTT; all 2'-MOE, all phosphorothioate, methylation of C not given here) |  |  |  |  |  |  |  |  |  |  |  |  |  |  |  | 56% | 
ISIS 341805: SEQ ID NO: 762, targeting mir-184 (antisense ACCCTTATCAGTTCTCCGTCCA; all 2'-MOE, all phosphorothioate, methylation of C not given here) |  |  |  |  |  |  |  |  |  |  |  |  |  |  |  | 60% | 

Reference: patent US8178506B2, “Oligomeric compounds and compositions for use in modulation of small non-coding RNAs” (Regulus Therapeutics Inc., priority 2003, dated 2012)
